Measured values from patent US12582721B2, “Molybdenum-based feed supplement for bees” (UNIVERSITE DE VERSAILLES—SAINT-QUENTIN-EN-YVELINES, priority 2020, dated 2026).

Experiments:
[1] = test system: human epithelial pancreatic adenocarcinoma cells of the BxPC-3 line; experiment: Resazurin cell proliferation test, BxPC-3 cells; format: cell-based; details: pancreatic cancer cells; IC50 equal to and greater than 100 μM considered no activity
Text: (§1) For cell culture, human cervical epithelial cells of the HeLa line, human epithelial pancreatic adenocarcinoma cells of the BxPC-3 line and healthy Madin-Darby canine kidney epithelial cells of the MDCK line were used in this study. The Resazurin cell proliferation test was applied according to the literature (S. Anoopkumar-Dukie, J. B. Carey, T. Conere, E. O'Sullivan, F. N. van Pelt, A. Allshire, Br J Radiol 2005, 78, 945, DOI: 10.1259/bjr/54004230). As an indicator of the effectiveness of the experimental compounds on cell proliferation, the median inhibitory concentration (IC50) was used. The lower the IC50 value, the higher the activity (in this case, the cytotoxicity).
(§2) Five formula I complexes were tested in this study in comparison to two reference anti-cancer compounds (“Cisplatin” and Doxorubicin complex).

Varroa destructor = experiment: 2nd test in the hives: degree of larvae infestation with Varroa; format: in vivo; details: for Degree of larvae infestation with Varroa: 100 = larvae infestation rate of 28.2%; for Degree of larvae infestation with Varroa, change versus batch I: value in brackets
Experimental: The 2nd test was performed in the same apiary the following year. Feeding with the complex of the invention took place in spring. The biological tests were monitored up to the month of September. The molecules tested, their concentration in solution and their annual overall doses are listed below: • 1. […] The concentration of the complex in syrup: 1.5×10^-7 mol/L. Overall product dose: 2 mg/colony • 2. […] Overall complex dose: 6 mg/colony • 4. LiCH3COO·H2O for comparison, abbreviated as Li-Ac • The feeding is carried out with 2000 g of candy containing 0.8 mg of product then 6 to 7 L of syrup containing 0.2 mg/L of product. The concentration of product in the syrup: 2.36×10^-6 mol/L that is 1.67×10^-5 g/L. Overall product dose: 2 mg/colony [table]

[2] = test system: families of European domestic bees; experiment: 1st test in hives: morpho-productive characters; format: in vivo, Apis mellifera carpatica; details: for Power of the bee family / Prolificity of the queen / Quantity of honey at the first harvest / Quantity of honey at the first harvest, change versus batch I: overall dose 2 mg per colony; for Power of the bee family / Prolificity of the queen / Quantity of honey at the first harvest: spring feeding, 10 hives; for Quantity of honey at the first harvest, change versus batch I: value in brackets; for Effects on the prolificity of the queen and the amount of honey collected compared to PPh4-Mo2O4-EDTA: 1st test, 2 mg per colony
Experimental: Biological field tests were performed on families of European domestic bees of the species Apis mellifera […] experimental apiary located in the […] forestry district (Republic of Moldova). Feeding with the complex of the invention took place in spring. The biological tests were monitored up to the month of September. To administer the compounds to the bees, a very small amount of bioactive substance was added to two types of sugary feeding products for bees: candy in the form of a paste (70% sucrose, 30% honey) or syrup (50% sucrose, 50% water). The bees were fed by adding the candy/syrup to the feeder located in the inner upper part of the hive. The volume of syrup was adjusted based on the number of bee frames at the initial time, more precisely 200 g of candy per frame and 100 mL of syrup per frame, that is 2 kg of candy and 1 L of syrup per hive of 10 frames. For the first feeding step, candy in the form of a paste was only given once. […] From the start of the test to the end (after the second harvest), all the bees were monitored for several key morpho-producing parameters that reflect the development level of the colony and the vital aspects of the bees. The parameters studied are: the prolificity of the queen (fertility), the power of the colonies, the production of honey and the production of wax. These parameters were monitored in line with the zootechnical standards concerning the assessment of bee families, breeding and certification of beekeeping parental material approved by government decision No. 306 dated Apr. 28, 2011 of the Republic of Moldova. The production of honey (in kg) was determined for each family of bees by adding the amount of honey produced (honey from supers), extracted during the harvest season, to the amount of honey built up in the honeycomb (brood chamber) and left as food for the bees for the winter period (brood honey). The amount of honey produced will be determined for each family, for each extraction, by weighing the frames/honeycomb before and after extraction (with an accuracy of 0.1 kg), the weight difference being the quantity of honey produced that was extracted. The amount of honey left in the honeycomb to feed the bees was determined at the autumn visit (September), by weighing the honey frames and deducting (from their total weight) the total weight of the standard honeycomb frames; for […] type frames (435×300 mm)-0.6 kg, for Langstroth frames (435×230 mm)-0.5 kg. The power of the bee colony represents the number of bees present in the honeycomb at the time of the assessment. The assessment is performed three times per year: at the spring visit (March-April), at the end of spring (20-31 May) and at the visit in autumn (September). After these three assessments, the average power of the bee family is determined. The amount of bees (kg) is determined by multiplying the number of intervals between the frames, uniformly occupied by the bees, by the coefficient 0.25 for the standard […] frame (435×300 mm) and by 0.2 for the standard Langstroth frame (435×230 mm). The prolificity of the queen (eggs/24 hours) is determined during the visit at the end of the spring (20-31 May) by dividing the number of cells with the brood by 12 (duration of development of the brood, days), the number of eggs laid in 24 hours. The number of cells in the honeycomb is determined using the Netz frame by measuring the number of squares (5×5 cm) occupied by the brood, which is multiplied by 100, to give the total number of cells with the brood covered. The molecules tested, their concentration in solution and their annual overall doses are listed below: • 1. […] The concentration of the complex in the syrup: 1.5×10^-7 mol/L. Overall and annual product dose: 2 mg of complex per colony • 2. […] The concentration of the complex in syrup: 3.0×10^-7 mol/L. Overall and annual product dose: 2 mg of complex per colony • 3. […] Overall and annual product dose: 2 mg of complex per colony • 4. […]

[3] = test system: healthy Madin-Darby canine kidney epithelial cells of the MDCK line; experiment: Resazurin cell proliferation test, MDCK cells; format: cell-based; details: healthy cells; IC50 equal to and greater than 100 μM considered no activity
Text: as §1, §2

| SMILES | IC50 [1] [µM] | Degree of larvae infestation with Varroa (Varroa destructor; overall dose 2 mg/hive) | Degree of larvae infestation with Varroa, change versus batch I (Varroa destructor; overall dose 2 mg/hive) [%] | Power of the bee family [2] | Prolificity of the queen [2] | Quantity of honey at the first harvest [2] | Quantity of honey at the first harvest, change versus batch I [2] | IC50 [3] [µM] | IC50, BxPc-3 [1] | Degree of larvae infestation with Varroa (Varroa destructor; overall dose 6 mg/hive) | Degree of larvae infestation with Varroa, change versus batch I (Varroa destructor; overall dose 6 mg/hive) [%] | Effects on the prolificity of the queen and the amount of honey collected compared to PPh4-Mo2O4-EDTA [2] | IC50, MDCK [3] |
| --- | --- | --- | --- | --- | --- | --- | --- | --- | --- | --- | --- | --- | --- |
| O=C([O-])CN(CCN(CC(=O)[O-])CC(=O)[O-])CC(=O)[O-].[O]=[Mo+]12[O][Mo+]1(=[O])[O]2.c1ccc([P+](c2ccccc2)(c2ccccc2)c2ccccc2)cc1.c1ccc([P+](c2ccccc2)(c2ccccc2)c2ccccc2)cc1 [PPh4—Mo2O4-EDTA, (PPh4)2[Mo2O4 (EDTA)]·2.5H2O] | 25.1 ± 7.02 | 56.0 % relative to batch I | −44.0 | 102.1 % relative to batch I | 107.1 % relative to batch I | 113.3 % relative to batch I | +13.3% | 60.7 ± 12.1 | – | – | – | – | – |
| CC(=O)[O-].[Li+] [Li—Ac, LiCH3COO·H2O, reference compound] | – | 64.9 % relative to batch I | −35.1 | 98.3 % relative to batch I | 108.8 % relative to batch I | 122.9 % relative to batch I | +22.9% | – | – | – | – | – | – |
| O.O.O.O.O.O.O=C([O-])CN(CCN(CC(=O)[O-])CC(=O)[O-])CC(=O)[O-].[Li+].[Li+].[O]=[Mo+]12[O][Mo+]1(=[O])[O]2 [Li—Mo2O4-EDTA, Li2[Mo2O4 (EDTA)]·6H2O] | – | 42.6 % relative to batch I | −57.4 | 103.3 % relative to batch I | 111.7 % relative to batch I | 143.1 % relative to batch I | +43.1% | – | Inactive | 18.4 % relative to batch I | −81.6 | higher effects | Inactive |
| O.O.O.O.O.O=C([O-])CN(CCN(CC(=O)[O-])CC(=O)[O-])CC(=O)[O-].[Na+].[Na+].[O]=[Mo+]12[O][Mo+]1(=[O])[O]2 [Na—Mo2O4-EDTA, Na2[Mo2O4 (EDTA)]·5H2O] | – | – | – | 101.2 % relative to batch I | 113.3 % relative to batch I | 149.9 % relative to batch I | +49.9% | – | Inactive | – | – | higher effects | Inactive |
